Experimental data: patent US20100047233A1, “TREATMENT OF POST-MENOPAUSAL AND POST-HYSTERECTOMY MEDIATED COGNITIVE DISORDERS” (priority 2006, published 2010)
“Also recorded” adds a separate entry of the source. Non-standard residues stand in square brackets, D forms with d. Residues, ends and D or L forms follow the SMILES beside them. dPhe(4-Cl) = N[C@H](Cc1ccc(Cl)cc1)C(=O)O; d2Nal = N[C@H](Cc1ccc2ccccc2c1)C(=O)O; dCit = NC(=O)NCCC[C@@H](N)C(=O)O; d3Pal = N[C@H](Cc1cccnc1)C(=O)O

Tests used:
[1] = tested on: Aβ; assay: Aβ burden (% area stained) in hippocampus of Tg2576 mice; format: in vivo; details: vs saline-treated animals
Source text: Scale bar, 200 μm. […] In this initial study we used aged animals to 1) circumvent the estrogen issue, since aged mice, like humans show estropause and 2) to examine the effects of LH ablation once the disease is well established.

[2] = tested on: C57/B6 female mice; assay: Morris Water Maze in ovariectomized mice (leuprolide acetate, estrogen); format: in vivo; details: for OVX-associated cognitive decline, length of time taken to locate the invisible platform across days: OVX C57/B6 mice, Morris Water Maze, 3 months treatment
Source text: (Significance indicated by: *P+S vs E+S; #=P+S vs P+L; $=P+S vs SHAM; %=P+S vs E+L; at p<0.05).
For this pilot 2 month old C57/B6 female mice from Jackson Labs, were ovariectomized (n=40) them and either replaced them with 90-day time-release estrogen (n=20) or placebo pellets (Innovative research of America, F1) (n=18). […] In addition we added a SHAM ovariectomized group that received saline and a placebo pallet (n=10). During the last two weeks of the study all animals have been tested for Y-maze and Morris Water Maze performance.
As mentioned before, all mice also underwent MWM testing, a measurement of hippocampal function based on the capacity of the animal to find a hidden platform under water by remembering and using spatial cues in the environment.
(§1) Additionally, to further determine the memory function and training success in the animals we measured the capacity of the animals to retain the information learned using a probe trial. In this regard, at the end of the last day of training we removed the platform and let the animals swim for 1 minute.

[3] = tested on: LHβ mRNA; assay: LHβ mRNA expression in mouse pituitary gland; format: in vivo; details: saline versus 6 and 8 week leuprolide acetate treatment
Source text: (§2) Inset: LHβ mRNA expression in mouse pituitary gland.

[4] = tested on: serum LH; assay: Serum LH after leuprolide acetate treatment in mice; format: in vivo; details: for serum LH: Tg2576 mice, vs saline
Source text: as §2

[5] = tested on: Tg2576 mice; assay: Y-maze performance in aged Tg2576 mice; format: in vivo; details: aged (21 month old) Tg2576 female mice, 3 months, vs saline/placebo
Method: (§3) Figure illustrates the mean % alternations expressed as % change from baseline. To measure spontaneous alternation behavior and exploratory activity, a hippocampal-associated task, we used a Y-maze [32 cm (long)×10 cm (wide) with 26-cm walls]. Tg-LHβ and LHRKO animals were tested as previously described (Joseph et al., 2003). Briefly, each animal (randomized and investigator-blinded) was placed in one of three arms of the Y-maze (alternating arms across animals in each group) and each arm entry was recorded for duration of 5 minutes. An alternation was defined as 3 entries in 3 different arms (i.e., 1, 2, 3 or 2, 3, 1 etc). % number of alternations was calculated as (total alternations/total number of entries−2)×100. The maze was cleaned with ethanol between each animal to minimize odor cues. […] In this initial study we used aged animals to 1) circumvent the estrogen issue, since aged mice, like humans show estropause and 2) to examine the effects of LH ablation once the disease is well established.

[6] = tested on: C57/B6 female mice; assay: Y-maze performance in ovariectomized mice; format: in vivo; details: OVX mice; for Y-maze performance: leuprolide acetate 7.5 mg/kg for 3 months vs saline, improvement specific to placebo replaced group
Method: as §3, with “To” for “Figure illustrates the mean % alternations expressed as % change from baseline. To”, “addition we added a SHAM ovariectomized group that received saline and a placebo pallet (n=10). During the last two weeks of the” for “this initial”, “all” for “we used aged”, “have been tested for Y-maze” for “to 1) circumvent the estrogen issue, since aged mice, like humans show estropause”, “Morris Water Maze performance.” for “2) to examine the effects of LH ablation once the disease is well established.”

[7] = tested on: AD patients; details: high doses, phase II clinical trial; cited from earlier work
[8] = tested on: Tg2576 mice; details: APP transgenic mice, earlier study; cited from earlier work
[9] = tested on: Aβ; details: APP transgenic mice, earlier study; cited from earlier work
[10] = tested on: C57/B6 female mice; assay: Morris Water Maze in ovariectomized mice (cetrorelix); format: in vivo
Source text: FIG. 13 are graphs illustrating Latency to enter NE quadrant and % Time spent in NE quadrant during the probe trial for animals treated with cetrorelix or saline and sham operated animals (SHAM).
FIG. 14 are plots illustrating the distance swam in NE quadrant during the trial for animals treated with cetrorelix or saline and sham operated animals.
We present preliminary data gathered from a pilot study and that focuses on the effects of cetrorelix on cognition in ovariectomized animals with or without estrogen replacement immediately after surgery. For this pilot 2 month old C57/B6 female mice were ovariectomized, as described above, and then treated with either 0.9% saline and the other half with cetrorelix. In addition we added a SHAM ovariectomized group that received saline and a placebo pallet (n=10). During the last two weeks of the study all animals have been tested for Morris Water Maze performance.
as §1

[11] = platform removed, 1 minute swim, regardless of replacement regiment

CCNC(=O)[C@@H]1CCCN1C(=O)[C@H](CCCNC(=N)N)NC(=O)[C@H](CC(C)C)NC(=O)[C@@H](CC(C)C)NC(=O)[C@H](Cc1ccc(O)cc1)NC(=O)[C@H](CO)NC(=O)[C@H](Cc1c[nH]c2ccccc12)NC(=O)[C@H](Cc1c[nH]cn1)NC(=O)[C@@H]1CCC(=O)N1 [leuprolide acetate]
Aβ burden / plaque load (% area stained in the entire hippocampus) [1]: significantly lower; also recorded: decreases Aβ plaque load
OVX-associated cognitive decline, length of time taken to locate the invisible platform across days [2]: as effective as estrogen in rescuing OVX-associated cognition decline
rate of learning in Morris Water Maze ([2]; independent of replacement regiment, vs saline): learned at a faster rate
distance swam in NE quadrant, probe trial [2, 11]: swam longer distances
latency to enter NE quadrant, probe trial [2, 11]: entered that quadrant earlier
latency to enter platform location, probe trial [2, 11]: crossed the invisible platform region more earlier
number of platform crossings, probe trial [2, 11]: crossed it more times
LHβ mRNA expression in the pituitary [3]: clear decrease in the expression of LHβ mRNA
serum LH [4]: significant decline in serum LH
serum LH ([4]; listed as Leuprolide acetate): significantly reduces serum LH
time course of serum LH ([4]; up to 8 weeks following treatment): classical LH modulation pattern by GnRH agonists
Y-maze cognitive performance (% alternations, % change from baseline) [5]: significantly attenuates cognitive decline
Y-maze performance [6]: significantly improved Y-maze performance
Y-maze performance ([6]; listed as leuprolide): effective at improving OVX-dependent cognitive declines
cognitive impairment and activities of daily living [7]: stabilization in cognitive impairment and activities of daily living
Y-maze performance [8]: improves Y-maze performance
amyloid-β load in the hippocampus [9]: decreases amyloid-β load

estrogen
OVX-associated cognitive decline, length of time taken to locate the invisible platform across days [2]: rescued
Y-maze performance, estrogen-replaced vs placebo replaced ([6]; saline-treated, 90-day time-release estrogen vs placebo pellets, p=0.07): strong trend

CC(=O)N[C@H](Cc1ccc2ccccc2c1)C(=O)N[C@H](Cc1ccc(Cl)cc1)C(=O)N[C@H](Cc1cccnc1)C(=O)N[C@@H](CO)C(=O)N[C@@H](Cc1ccc(O)cc1)C(=O)N[C@H](CCCNC(N)=O)C(=O)N[C@@H](CC(C)C)C(=O)N[C@@H](CCCNC(=N)N)C(=O)N1CCC[C@H]1C(=O)N[C@H](C)C(N)=O [cetrorelix] (Ac-[d2Nal][dPhe(4-Cl)][d3Pal]SY[dCit]LRP[dA]-NH2)
OVX-dependent cognitive declines, Morris Water Maze ([10]; OVX placebo-implanted mice, cetrorelix vs saline): effective at improving OVX-dependent cognitive declines
rate of learning in Morris Water Maze ([10]; independent of replacement regiment, cetrorelix vs saline): learned at a faster rate
distance swam in NE quadrant, probe trial ([10]; platform removed, 1 minute swim): swam longer distances
